Patent US9784731B2, “Methods of monitoring and analyzing metabolic activity profiles diagnostic and therapeutic uses of same” (priority 2011, dated 2017)

Legend:
many cell types = conditions: intracellular pH measurements, overnight incubation at 2 mM; cited from earlier work
[1] = in aqueous (physiological) buffers; cited from earlier work
hPBMCs = assay: metabolic activity (MA) test, extracellular acidification of PBMCs; type: cell-based, human; conditions: hPBMCs of cancer patients, increasing PSA concentrations, FIGS. 8A-D
Description: Fresh peripheral blood mononuclear cells (PBMCs) were isolated by Ficoll-Paque (UNI-SEP, Novamed) and gradient centrifugation. The pellet was resuspended in working solution (WS) (PBS with calcium and magnesium) including the fluorescent probe (HPTS) at a final concentration of 5×10^6 cells/ml.
Each well in a black non-binding, low-volume 384 multi-well plate (Greiner Bio-One) was loaded with 10 μl of the PBMCs solution and 10 μl of working solution plus HPTS including one of ten reagents in 8 increasing concentrations. Thus the final concentration of the probe in each well was 1 μM, and the final concentration of the PBMCs was 2.5×10^6 cells/ml in 20 μl physiological working solution containing 10 mM phosphate buffer around pH 7.3. […] The acidification process was monitored each 5 min during 1 hour of incubation at 37° C. by a commercial fluorescence scanner (TECAN Infinite M200). First, the scanner monitored the acidification process without sealing (“OPEN” mode) during 30 min (6 cycles) and then, to avoid ventilation of CO2 and NH3 from each well, the multi-well plate was sealed hermetically (ThermalSeal RT™, EXCEL Scientific, Inc.) (“CLOSE” mode). Next, the acidification process was monitored again during 30 min (6 cycles). In order to increase the signal to noise ratio, the fluorescence intensities at 513 nm were measured sequentially under excitation at 455 nm and 403 nm per well. […]

O=S(=O)(O)c1cc(O)c2ccc3c(S(=O)(=O)O)cc(S(=O)(=O)O)c4ccc1c2c34 [HPTS, 8-Hydroxypyrene-1,3,6-trisulfonic acid]
toxicity (many cell types): low-toxicity | pKa [1]: ~7.3

PSA: normal prostate tissue specific antigen peptide (146-154aa) recognized by cytotoxic T lymphocytes (PALGTTCYA; UniProt P07288 146-154, looked up, fragment)
MA-test profile under stimulation (hPBMCs): marked peaks at optimal concentrations
